Results taken from patent US20140066365A1, “USE OF CALIXARENES ASSOCIATED WITH AN ANTIBIOTIC IN THE TREATMENT OF BACTERIAL INFECTIONS” (priority 2011, published 2014).
Values after ≈ are worked out from the molar mass of the structure shown. Read-outs that look alike come from different tables or passages of the source.

Tests used:
[1] = test system: Pseudomonas aeruginosa strain ATCC 27853 (wild type); experiment: MIC of the compounds used alone, microdilution in a liquid medium (CLSI); format: cell-based; conditions: antibiotic alone (second value of cell), P. aeruginosa ATCC 27853
From the text: (§1) The MICs of the antibiotics were previously defined for each strain, by the method of microdilution in a liquid medium (CLSI (Clinical and Laboratory Standards Institute), 2003).

[2] = test system: Pseudomonas aeruginosa strain PaR3; experiment: as above; format: cell-based; conditions: antibiotic alone (second value of cell)
From the text: as §1

[3] = test system: mucoid strain of Pseudomonas aeruginosa PaR5; experiment: as above; format: cell-based; conditions: antibiotic alone (second value of cell)
From the text: as §1

[4] = test system: Pseudomonas aeruginosa strain PaR2; experiment: microbe, parasite or virus in culture; format: cell-based; conditions: antibiotic alone (second value of cell)
From the text: as §1

[5] = test system: EcR1: Penicillinase-Producing Escherichia coli without Associated Resistance; experiment: Antibiogram by the disk diffusion technique; format: cell-based
Description: (§2) 5.1 EcR1: Penicillinase-Producing Escherichia coli without Associated Resistance The bacterial and antibiogramidentification is carried out by the VITEK 2 system (bioMérieux) and by the disk diffusion technique.

[6] = test system: EcR3: ESBL-Producing Escherichia coli; experiment: Antibiogram by the disk diffusion technique; format: cell-based; conditions: for Diameter: Table C1; for diameter in mm: Table C2
Description: The bacterial and antibiogramidentification is carried out by the VITEK 2 system (bioMerieux) and by the disk diffusion technique

[7] = test system: PaR3: Pseudomonas aeruginosa; experiment: Antibiogram, MIC by the VITEK 2 system; format: cell-based
Description: The bacterial and antibiogramidentification is carried out by the VITEK 2 system (bioMérieux)

[8] = test system: PaR5: Pseudomonas aeruginosa; experiment: Antibiogram by the disk diffusion technique; format: cell-based; conditions: for diameter in mm: disk diffusion inhibition diameter, strain PaR5
Description: (§3) The bacterial and antibiogramidentification is carried out by the VITEK 2 system (bioMérieux) and by the disk diffusion technique

[9] = test system: PaR2: Pseudomonas aeruginosa; format: cell-based; conditions: for Diameter: Table G1; for diameter in mm: Table G2
Description: as §3

[10] = test system: ESBL-producing strain of Escherichia coli, having an associated resistance to the aminoglycosides (EcR3); experiment: MIC of the compounds used alone, microdilution in a liquid medium (CLSI); format: cell-based; conditions: Escherichia coli, antibiotic alone (second value of cell), read-out: Initial MICs
From the text: as §1

[11] = test system: Escherichia coli strain ATCC 25922 (wild type); experiment: as above; format: cell-based; conditions: Escherichia coli, ATCC25922; antibiotic alone (second value of cell); E. coli ATCC 25922; read-out: Initial MICs
From the text: as §1

[12] = test system: Staphylococcus aureus strain ATCC 29213 (wild type); experiment: as above; format: cell-based; conditions: Staphylococcus aureus, ATCC29213; antibiotic alone (second value of cell); S. aureus ATCC 29213; read-out: Initial MICs
From the text: as §1

[13] = test system: cephalosporinase-hyperproducing strain of Escherichia coli (EcR2); experiment: as above; format: cell-based; conditions: Escherichia coli, antibiotic alone (second value of cell), read-out: Initial MICs
From the text: as §1

[14] = test system: penicillinase-producing strain of Escherichia coli without associated resistance (EcR1); experiment: as above; format: cell-based; conditions: Escherichia coli, antibiotic alone (second value of cell), read-out: Initial MICs
From the text: as §1

[15] = as above; format: cell-based, Staphylococcus aureus; conditions: Staphylococcus aureus, MRSA; antibiotic alone (second value of cell); SaR4; read-out: MIC
From the text: as §1

[16] = test system: MRSA strain having a resistance to the aminoglycosides and fluoroquinolones (SaR3); experiment: as above; format: cell-based, Staphylococcus aureus; conditions: Staphylococcus aureus, MRSA; antibiotic alone (second value of cell); SaR3; read-out: MIC
From the text: as §1

[17] = test system: MRSA strain without associated resistance (SaR1); experiment: as above; format: cell-based, Staphylococcus aureus; conditions: Staphylococcus aureus, MRSA; antibiotic alone (second value of cell); SaR1; read-out: MIC
From the text: as §1

[18] = test system: EcR1: Penicillinase-Producing Escherichia coli without Associated Resistance; experiment: Antibiogram, MIC by the VITEK 2 system; format: cell-based; conditions: Escherichia coli
Description: as §2

[19] = test system: EcR2: Cephalosporinase-Hyperproducing Strain of Escherichia coli; experiment: Antibiogram, MIC by the VITEK 1 system; format: cell-based; conditions: Escherichia coli, read-out: MIC
Description: The bacterial and antibiogramidentification is carried out by the VITEK 1 system (bioMérieux) and by the disk diffusion technique

[20] = test system: Escherichia coli, Staphylococcus aureus and Pseudomonas aeruginosa strains; experiment: Chessboard technique, summary statements over all strains and combinations tested; format: cell-based; conditions: strain not stated
From the text: 1.3. Procedure: Chessboard Technique
The same procedure is followed for the Cx1. […] Thus 64 ATB/Cx1 combinations are obtained.
The FIC (Fractional Inhibitory Concentration Index) value is defined by the following formula: […]
When FIC≦0.5, there is a synergistic effect between antibiotic A and antibiotic B.
When 0.5<FIC≦1, there is an additive effect between antibiotic A and antibiotic B.
When 1<FIC≦4, there is an indifferent effect between antibiotic A and antibiotic B.
When FIC>4, there is an antagonistic effect between antibiotic A and antibiotic B.
For each strain and each antibiotic/Cx1 combination, the experiments were repeated a minimum of 3 times.

[21] = Pseudomonas aeruginosa, read-out: MIC

Colimycin
MIC [1]: 4 mg/L | MIC [2]: 8 mg/L | MIC [3]: 16 mg/L | MIC [4]: 8 mg/L | MIC mg/L (diameter in mm) ([5]; EcR1, cells that print a diameter, Table A2): 15 mm | CA-SFM Interpretation ([5]; EcR1, diameter against CA-SFM 2011 limits): Susceptible | EUCAST Interpretation ([5]; EcR1, diameter against EUCAST 2011 limits): Resistant | Diameter ([5]; EcR1, disk diffusion, Table A1): 15 mm | Results ([5]; EcR1, interpretation of the diameter against Dmin Dmax, Table A1): Susceptible | CA-SFM Interpretation ([6]; Cd CA-SFM 2011): Susceptible | Diameter [6]: 16 mm | Results ([6]; Table C1, against Dmin Dmax): Susceptible | diameter in mm [6]: 16 mm | CA-SFM Interpretation ([7]; Cc CA-SFM 2011): Susceptible | CLSI Interpretation ([7]; Cc CLSI 2011): Susceptible | EUCAST Interpretation ([7]; Cc EUCAST 2011): Susceptible | MIC ([7]; Table H1): ≦0.5 | Results ([7]; Table H1): Susceptible | MIC mg/L ([7]; Table H2): ≦0.5 mg/L | Diameter ([8]; PaR5, Table I1): 23 mm | Results ([8]; PaR5, Table I1, against Dmin-Dmax): Susceptible | diameter in mm [8]: 23 mm | CA-SFM Interpretation ([8]; disk diffusion, PaR5, versus critical diameter CA-SFM 2011): Susceptible | CLSI Interpretation ([8]; disk diffusion, PaR5, versus critical diameter CLSI 2011): Susceptible | CA-SFM Interpretation ([9]; Cd CA-SFM 2011): Susceptible | CLSI Interpretation ([9]; Cd CLSI 2011): Susceptible | Diameter [9]: 20 mm | Results ([9]; Table G1, against Dmin-Dmax): Susceptible | diameter in mm [9]: 20 mm

C[C@@H](O)[C@H]1C(=O)N2C(C(=O)O)=C(SCCN=CN)C[C@H]12 [Imipenem]
MIC [10]: 0.125 µg/mL | MIC [11]: 0.125 µg/mL | MIC ([1]; Pseudomonas aeruginosa, ATCC27853, read-out: MIC): 2 mg/L | MIC [2, 21]: 32 mg/L | MIC [12]: 0.015 µg/mL | MIC [13]: 0.125 µg/mL | MIC [3, 21]: 2 mg/L | MIC [14]: 0.125 µg/mL | MIC [15]: 2 µg/mL | MIC [16]: 0.25 µg/mL | MIC [17]: 0.25 µg/mL | MIC [4, 21]: 2 mg/L (≈ 6.68 µM) | MIC ([18]; EcR1, Table A2, read-out: MIC mg/L (diameter in mm)): ≤ 0.5 mg/L | MIC ([18]; EcR1, VITEK 2, Table A1, read-out: MIC): ≤ 1 mg/L | MIC ([19]; EcR2, VITEK 1, Table B1): ≤ 4 µg/mL | MIC ([19]; EcR2, Table B2, MIC): ≤ 0.5 µg/mL | Diameter [6]: 27 mm | diameter in mm [6]: 27 mm | MIC ([7]; Pseudomonas aeruginosa, Table H2, read-out: MIC): ≥ 16 µg/mL | MIC ([7]; Table H1): ≧16 | Diameter ([8]; PaR5, Table I1): 25 mm | diameter in mm [8]: 25 mm | Diameter [9]: 27 mm | diameter in mm [9]: 27 mm

[H]/N=C(/N)N[C@H]1[C@H](O)[C@@H](O)[C@H](O[C@@H]2O[C@@H](C)[C@](O)(C=O)[C@H]2O[C@@H]2O[C@@H](CO)[C@H](O)[C@@H](O)[C@@H]2NC)[C@@H](N/C(N)=N\[H])[C@@H]1O [Streptomycin]
MIC [12]: 4 µg/mL | MIC [15]: 4 µg/mL | MIC [16]: 4 µg/mL | MIC [17]: 4 µg/mL | interaction between the antibiotic and Cx1 [20]: synergism
